US8436180B2, “Substituted-4-aryl-1,4-dihydro-1,6-naphthyridinamides and use thereof” (Bayer Intellectual Property GmbH, priority 2007, dated 2013)
pIC50: −log10 of the molar value.

Assays:
[1] = biological target: T1, human mineralocorticoid receptor (MR) (Homo sapiens, UniProt P08235); test: Cellular in vitro assay to determine the inhibitory MR activity (GAL4-MR chimera luciferase reporter in CHO K1 cells); type: cell-based; conditions: antagonism of aldosterone-stimulated luciferase activity
T1 construct: expressed in transfected cells; host or cells: CHO K1 (Chinese hamster ovary), stably transfected
T1 sequence (P08235 734-984 limits assumed): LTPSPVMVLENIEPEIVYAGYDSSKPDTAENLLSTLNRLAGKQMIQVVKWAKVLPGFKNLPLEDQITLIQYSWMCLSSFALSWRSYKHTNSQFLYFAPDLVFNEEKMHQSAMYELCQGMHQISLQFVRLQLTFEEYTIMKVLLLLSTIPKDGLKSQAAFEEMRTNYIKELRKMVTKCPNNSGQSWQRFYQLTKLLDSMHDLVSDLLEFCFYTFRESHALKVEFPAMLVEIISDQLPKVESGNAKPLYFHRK
Text: 1. Cellular In Vitro Assay to Determine the Inhibitory MR Activity and MR Selectivity Compared with Other Steroid Hormone Receptors
Antagonists of the human mineralocorticoid receptor (MR) are identified, and the activity of the compounds described herein is quantified with the aid of a recombinant cell line. The cell is originally derived from a hamster ovary epithelial cell (Chinese Hamster Ovary, CHO K1, ATCC: American Type Culture Collection, VA 20108, USA).
An established chimera system in which the ligand-binding domains of human steroid hormone receptors are fused to the DNA-binding domain of the yeast transcription factor GAL4 is used in this CHO K1 cell line. The GAL4-steroid hormone receptor chimeras produced in this way are cotransfected and stably expressed with a reporter construct in the CHO cells.
To generate the GAL4-steroid hormone receptor chimeras, the GAL4 DNA binding domain (amino acids 1-147) from the vector pFC2-dbd (from Stratagene) is cloned with the PCR-amplified ligand-binding domains of the mineralocorticoid receptor (MR, amino acids 734-985), of the glucocorticoid receptor (GR, amino acids 443-777), of the progesterone receptor (PR, amino acids 680-933) and of the androgen receptor (AR, amino acids 667-919) into the vector pIRES2 (from Clontech). […]
The MR, GR, PR and AR cells are plated out in medium (Optimem, 2.5% FCS, 2 mM glutamine, 10 mM HEPES) in 96- (or 384- or 1536-) well microtiter plates on the day before the assay and are kept in a cell incubator (96% humidity, 5% v/v CO2, 37° C.). […] After a further incubation time of 5 to 6 hours, the luciferase activity is measured with the aid of a video camera. The measured relative light units as a function of the substance concentration result in a sigmoidal stimulation curve. The IC50 values are calculated with the aid of the GraphPad PRISM computer program (Version 3.02).

[2] = system: aldosterone-induced sodium retention; test: In vivo assay for detecting anti-mineralocorticoid activity on anesthetized dogs; design: species or system dog; conditions: anesthetized dogs under continuous aldosterone infusion (0.6 μg/kg/h); positive control

pIC50 [1]	SMILES	sodium/potassium ratio in the urine [2]
7.80	CCOc1ncc(C)c2c1[C@H](c1ccc(C#N)cc1OC)C(C(N)=O)=C(C)N2 [5 [(−)-enantiomer]]	
7.46	CCOc1nccc2c1C(c1ccc(C#N)cc1OC)C(C(N)=O)=C(C)N2 (stereo not shown) [Example 1, 4-(4-Cyano-2-methoxyphenyl)-5-ethoxy-2-methyl-1,4-dihydro-1,6-naphthyridine-3-carboxamide]	
	CC(=O)S[C@@H]1CC2=CC(=O)CC[C@]2(C)[C@H]2CC[C@@]3(C)[C@@H](CC[C@@]34CCC(=O)O4)[C@H]12 [Spironolactone]	increases the sodium/potassium ratio in the urine dose-dependently

SMILES	pIC50 [1]	sodium/potassium ratio in the urine [2]
CCOc1ncc(C)c2c1C(c1ccc(C#N)cc1OC)C(C(N)=O)=C(C)N2 (racemic) [Example 4, 4-(4-Cyano-2-methoxyphenyl)-5-ethoxy-2,8-dimethyl-1,4-dihydro-1,6-naphthyridine-3-carboxamide]	7.64	
